Experimental data from patent US20250101062A1, “ANTIMICROBIAL PEPTIDES” (Board of Regents of the University of Nebraska, priority 2023, published 2025).
Where no end group is shown, it is not given here.

Experiments:
S. aureus USA300 LAC = assay: Scanning electron microscopy; type: cell-based, Staphylococcus aureus; conditions: 2×MIC, 30 minutes
Procedure: The exponential-phase S. aureus USA300 LAC was treated with a 2×MIC of LL-37mini for 30 minutes. Samples were washed three times with 1×PBS and fixed with 2% paraformaldehyde and 2% glutaraldehyde in 0.1 M PBS. Next, the samples were washed with Sorensen's buffer and postfixed in 1% osmium tetroxide in water for 30 minutes. All samples were then washed in Sorensen's buffer and dehydrated through a graded ethanol series (50, 70, 90, 95, and 100% with ×3 changes). Subsequently, samples were placed in […] 100% for 10 minutes with three changes and left in HMDS in open dishes in the fume hood overnight to allow the HMDS to evaporate. The following day, the samples were mounted on 25 mm aluminum SEM stubs with carbon adhesive tabs. Silver paste was placed around the edges of the samples. Samples were sputter coated with 50 nm of gold/palladium in a Hummer VI sputter coater (Anatech Ltd., Battle Creek, MI) and examined in an FEI Quanta 200 SEM at the UNMC Electron Microscopy Core Facility.

trypsin = conditions: peptide:protease 40:1, 37° C., 1 hour
Procedure: A solution of peptide/protease (40:1 molar ratio) was made in phosphate-buffered saline (PBS; pH 7.1, Gibco, NY) and incubated at 37° C. for 1 hour. As controls, peptides without proteases were also incubated in the same manner. Then, aliquots of 10 μL were transferred to a 96-well polystyrene microplate and mixed with the exponential-phase MRSA USA300 culture as performed in the antibacterial activity assays above.

RRWWRWWR-NH2 [W543]
cell morphology by SEM (S. aureus USA300 LAC): cell damages were evident | activity after protease incubation (trypsin): started to lose activity
